From US7041292B1, “Treating prostate cancer with anti-ErbB2 antibodies” (Genentech, Inc., priority 1999, dated 2006)
“Also recorded” adds a separate entry of the source.

B1: PEG-Fab: Fab' fragment of rhuMAb 2C4 expressed in E. coli and conjugated to 20 kD branched polyethylene glycol (conjugate, chains of the INN, looked up)
VH: EVQLVESGGGLVQPGGSLRLSCAASGFTFTDYTMDWVRQAPGKGLEWVADVNPNSGGSIYNQRFKGRFTLSVDRSKNTLYLQMNSLRAEDTAVYYCARNLGPSFYFDYWGQGTLVTVSS
VL: DIQMTQSPSSLSASVGDRVTITCKASQDVSIGVAWYQQKPGKAPKLLIYSASYRYTGVPSRFSGSGSGTDFTLTISSLQPEDFATYYCQQYYIYPYTFGQGTKVEIK
modifications: Fab' 20 kD branched PEG

Tests used:
[1] = system: EGF, TGF-α or HRG mediated activation of MAPK in MCF7 cells; experiment: EGF, TGF-α or HRG activation of MAPK in MCF7 cells, Western blot; assay type: cell-based, human; conditions: 200 nM antibody; 1 nM EGF, 1 nM TGF-α or 0.2 nM HRG; FIG. 10
Experimental: Many growth factor receptors signal through the mitogen-activated protein kinase (MAPK) pathway. These dual specificity kinases are one of the key endpoints in signal transduction pathways that ultimately triggers cancer cells to divide.
MCF7 cells (10^5 cells/well) were plated in serum containing media in 12-well cell culture plates. The next day, the cell media was removed and fresh media containing 0.1% serum was added to each well. This procedure was then repeated the following day and prior to assay the media was replaced with serum-free binding buffer (Jones et al. J. Biol. Chem. 273:11667–74 (1998); and Schaefer et al. J. Biol. Chem. 274:859–66 (1999)). […] Cells were then treated with 1 nM EGF, 1 nM TGF-α or 0.2 nM HRG for 15 minutes. The reaction was stopped by aspirating the cell medium and then adding 0.2 mL SDS-PAGE sample buffer containing 1% DTT. MAPK activation was assessed by Western blotting using an anti-active MAPK antibody (Promega) as described previously (Jones et al. J. Biol. Chem. 273:11667–74 (1998)).

MDA-MB-175 cells = experiment: MDA-MB-175 cell proliferation, crystal violet, 4 days, with or without rHRGβ1; assay type: cell-based, human; conditions: 10 μg/mL, not significantly reversed by exogenous HRG, FIG. 4A
Experimental: (§1) Experiment was carried out in medium containing 1% serum. Anti-ErbB2 antibodies or medium alone were added and the cells were incubated for 2 hours at 37° C. Subsequently rHRGβ1 (1 nM) or medium alone were added and the cells were incubated for 4 days. Monolayers were washed and stained/fixed with 0.5% crystal violet. To determine cell proliferation the absorbance was measured at 540 nm.
(§2) ErbB2 levels in MDA-MB-175 cells are 4–6 times higher than the level found in normal breast epithelial cells and the ErbB2-ErbB4 receptor is constitutively tyrosine phosphorylated in MDA-MB-175 cells. […] Inhibition of cell proliferation by 4D5 is dependent on the ErbB2 expression level (Lewis et al. Cancer Immunol. Immunother. 37:255–263 (1993)). […] However this effect […] by exogenous HRG.

[2] = system: CWRSA6 human prostate cancer xenograft; experiment: Androgen independent CWRSA6 prostate cancer xenograft; assay type: in vivo, mice
Experimental: (§3) Male animals were inoculated s.c. with 1×10^6 LNCaP cells or minced tumor tissue from the androgen dependent CWR22, and females received the androgen independent sublines CWR22R, or CWR22SA1, CWRSA4, CWRSA6 which were obtained by selecting tumors for regrowth and increased serum PSA after androgen withdrawal. […] Control mice were given vehicle alone. Tumors were measured every 3–4 days with vernier calipers, and tumor volumes were calculated by the formula: p/6 × larger diameter × (smaller diameter)^2. Animals with palpably established tumors of at least 65 mm^3 in volume were designated to treatment groups.
Statistical Analysis. Pairwise differences between the tumor volumes of the treatment groups were compared over time using a permutation test. […] The statistic used to test the hypothesis was the sum of the squared differences between mean tumor volume summed over all time points.

[3] = system: CWR22 human prostate cancer xenograft; experiment: Androgen dependent CWR22 prostate cancer xenograft; assay type: in vivo, mice; conditions: antibody 20 mg/kg twice weekly
Text: Animal studies: Four to six week old nude athymic BALB/c male and female mice were obtained from the National Cancer Institute-Frederick Cancer Center and maintained in pressurized ventilated caging at the Sloan-Kettering Institute. Male animals were inoculated s.c. with 1×10^6 LNCaP cells or minced tumor tissue from the androgen dependent CWR22, and females received the androgen independent sublines CWR22R, or CWR22SA1, CWRSA4, CWRSA6 which were obtained by selecting tumors for regrowth and increased serum PSA after androgen withdrawal. […] Control mice were given vehicle alone. Tumors were measured every 3–4 days with vernier calipers, and tumor volumes were calculated by the formula: p/6 × larger diameter × (smaller diameter)^2. Animals with palpably established tumors of at least 65 mm^3 in volume were designated to treatment groups.
Pairwise differences between the tumor volumes of the treatment groups were compared over time using a permutation test. […] The statistic used to test the hypothesis was the sum of the squared differences between mean tumor volume summed over all time points.
(§4) The effect of an antibody, which blocks ligand activation of an ErbB receptor, on human prostate cancer was assessed.
(§5) Both antibodies were dosed at 20 mg/kg twice per week.

[4] = system: MSKPC6 androgen independent prostate xenograft; experiment: Androgen independent MSKPC6 prostate xenograft, dose response; assay type: in vivo; conditions: IP loading 6, 20 or 60 mg/kg then 3, 10 or 30 mg/kg twice weekly, FIG. 25
Experimental: Dose response studies were carried out using rhuMAb 4D5 in the CWR22R and MSKPC6 (Agus et al. Cancer Research 59:4761–4764 (1999)) androgen independent prostate xenografts. Animals were dosed IP with: control; 6 mg/kg loading dose then 3 mg/kg twice weekly; 20 mg/kg loading dose then 10 mg/kg twice weekly; or 60 mg/kg loading dose then 30 mg/kg twice weekly.

[5] = system: CWR22R human prostate cancer xenograft; experiment: Androgen independent CWR22R prostate cancer xenograft; assay type: in vivo, mice; conditions: for effect on tumor growth / clinical activity: CWR22R androgen independent
Experimental: as §3
Pairwise differences between the tumor volumes of the treatment groups were compared over time using a permutation test.
as §4
All injections were given IP (N=5).
as §5

SK-BR-3 cells = experiment: SK-BR-3 cell proliferation, crystal violet, 4 days, with or without rHRGβ1; assay type: cell-based, human; conditions: 1% serum, FIG. 4B
Experimental: as §1, §2

[6] = system: LNCaP human prostate cancer xenograft; experiment: Androgen dependent LNCaP prostate cancer xenograft; assay type: in vivo, mice; conditions: end of the treatment period, n=6
Text: Animal studies: Four to six week old nude athymic BALB/c male and female mice were obtained from the National Cancer Institute-Frederick Cancer Center and maintained in pressurized ventilated caging at the Sloan-Kettering Institute. Male animals were inoculated s.c. with 1×10^6 LNCaP cells or minced tumor tissue from the androgen dependent CWR22, and females received the androgen independent sublines CWR22R, or CWR22SA1, CWRSA4, CWRSA6 which were obtained by selecting tumors for regrowth and increased serum PSA after androgen withdrawal. All lines were injected together with reconstituted basement membrane (Matrigel; Collaborative Research, Bedford, Mass.) as described previously (Nagabhushan et al. Cancer Res. 56:3042–3046 (1996); Wainstein et al. Cancer Res. 54:6049–6052 (1994); and Sato et al. Cancer Res. 57:1584–1589 (1997)). To maintain serum testosterone levels, male mice were implanted with 12.5-mg sustained release testosterone pellets (Innovative Research of American, Sarasota, Fla.) s.c. before receiving the tumor cell inoculation. […] Control mice were given vehicle alone. Tumors were measured every 3–4 days with vernier calipers, and tumor volumes were calculated by the formula: p/6 × larger diameter × (smaller diameter)^2. Animals with palpably established tumors of at least 65 mm^3 in volume were designated to treatment groups. […]

Molecule	block of EGF, TGF-α and HRG mediated activation of MAPK [1]	growth inhibitory effect on MDA-MB-175 cells (MDA-MB-175 cells)	effect on tumor growth / clinical activity ([2]; CWRSA6 androgen independent)	effect on tumor growth / clinical activity [3]	effect on tumor growth [4]	effect on tumor growth / clinical activity [5]	growth inhibitory effect on SK-BR-3 cells (SK-BR-3 cells)	mean tumor volume ([2]; CWRSA6, end of the treatment period, n=5)	mean tumor volume ([5]; CWR22R, end of the treatment period, n=5)	mean tumor volume [6]
2C4: murine monoclonal antibody binding the extracellular domain of ErbB2, blocks ligand activation; ATCC HB12697 [Mutant 2C4]	significantly blocks	strong growth inhibitory effect	has clinical activity	has clinical activity	suppresses the growth of androgen-independent tumor xenografts in a dose dependent manner	has clinical activity; also recorded: suppresses the growth of androgen-independent tumor xenografts in a dose dependent manner	no inhibitory effect	–	–	–
CC(=O)O[C@H]1C(=O)[C@@]2(C)[C@H]([C@H](OC(=O)c3ccccc3)[C@]3(O)C[C@H](OC(=O)[C@H](O)[C@@H](NC(=O)c4ccccc4)c4ccccc4)C(C)=C1C3(C)C)[C@]1(OC(C)=O)CO[C@@H]1C[C@@H]2O [paclitaxel, reference compound]	–	–	–	–	–	–	–	1,496 mm^3	1,273 mm^3	233 mm^3
B1	–	–	–	–	–	inhibits tumor growth	–	–	–	–
